Experimental data reported in patent US7115612B2, “Arylsulfonamides as antiviral agents” (Bayer Aktiengesellschaft, priority 2001, dated 2006).

What was measured:
[1] = Cytotoxicity on HELF cells in the anti-HCMV cytopathogenicity test; type: cell-based; conditions: human lung fibroblasts (HELF cells), 6 days incubation, visual evaluation
Description: (§1) The test compounds were employed as 50 millimolar (mM) solutions in dimethyl sulphoxide (DMSO). Ganciclovir, foscarnet and cidofovir served as reference compounds. Following the addition of in each case 2 μl of the 50, 5, 0.5 and 0.05 mM DMSO stock solutions to in each case 98μ of cell culture medium in row […], in duplicate determinations, 1:2 dilutions with in each case 50 μl of medium were prepared up to row 11 of the 96-well plate. The wells in rows 1 and 12 each contained 50 μl of medium. 150 μl of a suspension of 1×10^4 cells (human lung fibroblasts [HELF]) (row 1=cell control) or, in rows 2-12, a mixture of HCMV-infected and non-infected HELF cells (M.O.I.=0.001-0.002), i.e. 1-2 infected cells per 1000 non-infected cells, were then pipetted into each of the wells. Row 12 (without substance) served as virus control. The final test concentrations were 250-0.0005 μM. The plates were incubated at 37° C./5% CO2 for 6 days, i.e. until all cells in the virus controls had been infected (100% cytopathogenic effect [CPE]). The wells were then fixed and stained by adding a mixture of Formalin and Giemsa Stain (30 minutes), washed with doubly distilled water and dried in a drying cabinet at 50° C. The plates were then evaluated visually using an overhead microscope (plaque multiplier from Technomara). From the test plates, the following data were determined: CC50 (HELF)=substance concentration in μM at which, compared to the untreated cell control, no visible cytostatic effects on the cells were noticeable;

[2] = tested on: MCMV; assay: Anti-MCMV cytopathogenicity test; type: cell-based, murine cytomegalovirus; conditions: for EC50: Murid betaherpesvirus 1, 120 h, MCMV-infected 3T3 mouse cells, M.O.I. 0.05–0.1, 5 days; for SI MCMV: selectivity index, 3T3 CC50 / MCMV EC50
Description: Anti-HCMV (Anti-Human Cytomegalovirus) and anti-MCMV (Anti-Murine Cytomegalovirus) cytopathogenicity tests:
(§2) The test compounds were employed as 50 millimolar (mM) solutions in dimethyl sulphoxide (DMSO). Ganciclovir, foscarnet and cidofovir served as reference compounds. Following the addition of in each case 2 μl of the 50, 5, 0.5 and 0.05 mM DMSO stock solutions to in each case 98μ of cell culture medium in row 2 A-H, in duplicate determinations, 1:2 dilutions with in each case 50 μl of medium were prepared up to row 11 of the 96-well plate. The wells in rows 1 and 12 each contained 50 μl of medium. 150 μl of a suspension of 1×10^4 cells (human lung fibroblasts [HELF]) (row 1=cell control) or, in rows 2–12, a mixture of HCMV-infected and non-infected HELF cells (M.O.I.=0.001–0.002), i.e. 1–2 infected cells per 1000 non-infected cells, were then pipetted into each of the wells. Row 12 (without substance) served as virus control. The final test concentrations were 250–0.0005 μM. The plates were incubated at 37° C./5% CO2 for 6 days, i.e. until all cells in the virus controls had been infected (100% cytopathogenic effect [CPE]). The wells were then fixed and stained by adding a mixture of Formalin and Giemsa Stain (30 minutes), washed with doubly distilled water and dried in a drying cabinet at 50° C. The plates were then evaluated visually using an overhead microscope (plaque multiplier from Technomara).
(§3) Compared to the process described above for HCMV, the anti-MCMV test was carried out with the following changes: a cell-free virus suspension was mixed with a concentrated cell suspension (3T3 mouse cells) and incubated for 15 minutes for adsorption of the viruses, and the suspension was then diluted with medium to 1.3×10^5 cells/ml with a final multiplicity of infection (M.O.I.) of from 0.05–0.1, and in each case 150 μl were dispensed into the wells. The incubation time was 5 days.

[3] = tested on: HCMV; assay: Anti-HCMV cytopathogenicity test; type: cell-based, human cytomegalovirus; conditions: for EC50: Human betaherpesvirus 5, 144 h, inhibition of CPE by 50% in HCMV-infected HELF cells, M.O.I. 0.001–0.002, 6 days; for SI HCMV: selectivity index = CC50 (HELF)/EC50 (HCMV)
Description: Anti-HCMV (Anti-Human Cytomegalovirus) and anti-MCMV (Anti-Murine Cytomegalovirus) cytopathogenicity tests: The test compounds were employed as 50 millimolar (mM) solutions in dimethyl sulphoxide (DMSO). Ganciclovir, foscarnet and cidofovir served as reference compounds. Following the addition of in each case 2 μl of the 50, 5, 0.5 and 0.05 mM DMSO stock solutions to in each case 98μ of cell culture medium in row […], in duplicate determinations, 1:2 dilutions with in each case 50 μl of medium were prepared up to row 11 of the 96-well plate. The wells in rows 1 and 12 each contained 50 μl of medium. 150 μl of a suspension of 1×10^4 cells (human lung fibroblasts [HELF]) (row 1=cell control) or, in rows 2-12, a mixture of HCMV-infected and non-infected HELF cells (M.O.I.=0.001-0.002), i.e. 1-2 infected cells per 1000 non-infected cells, were then pipetted into each of the wells. Row 12 (without substance) served as virus control. The final test concentrations were 250-0.0005 μM. The plates were incubated at 37° C./5% CO2 for 6 days, i.e. until all cells in the virus controls had been infected (100% cytopathogenic effect [CPE]). The wells were then fixed and stained by adding a mixture of Formalin and Giemsa Stain (30 minutes), washed with doubly distilled water and dried in a drying cabinet at 50° C. The plates were then evaluated visually using an overhead microscope (plaque multiplier from Technomara). From the test plates, the following data were determined: EC50 (HCMV)=substance concentration in μM which inhibits the CPE (cytopathic effect) by 50% compared to the untreated virus control; SI (selectivity index)=CC50 (HELF)/EC50 (HCMV).

[4] = Cytotoxicity on 3T3 cells in the anti-MCMV cytopathogenicity test; type: cell-based; conditions: mouse, 3T3 mouse cells, 5 days incubation
Description: as §2
(§4) CC50 (HELF)=substance concentration in μM at which, compared to the untreated cell control, no visible cytostatic effects on the cells were noticeable;
as §3

[5] = tested on: human lung fibroblasts [HELF]; assay: Cytotoxicity on HELF cells in the anti-HCMV cytopathogenicity test; type: cell-based; conditions: 6 days incubation, visual evaluation
Description: as §1

[6] = tested on: 3T3 mouse cells; assay: Cytotoxicity on 3T3 cells in the anti-MCMV cytopathogenicity test; type: cell-based; conditions: 5 days incubation
Description: as §2, §4, §3

Row | melting point | EC50 [2] | EC50 [3] | SMILES | CC50 at 6 days [1] | SI MCMV [2] | SI HCMV [3] | CC50 at 5 days [4] | CC50 [5] | CC50 [6]
1 | 202 °C | 8 nM | 18 nM | CC1(C(=O)Nc2cccc(NS(=O)(=O)c3ccc(-c4noc(-c5ccccn5)n4)cc3)c2)CC1 [Example 3, 1-Methyl-N-{3-[({4-[5-(2-pyridinyl)-1,2,4-oxadiazol-3-yl]phenyl}sulphonyl)-amino]phenyl}cyclopropanecarboxamide] | < 140000 nM | 2875 | <7778 | 23000 nM |  | 
2 |  | 68 nM | 18 nM | Cc1cc(-c2nc(-c3ccc(S(=O)(=O)Nc4cccc(NC(=O)C5(C)CC5)c4)cc3)no2)n[nH]1 [Example 9, 1-Methyl-N-{3-[({4-[5-(5-methyl-1H-pyrazol-3-yl)-1,2,4-oxadiazol-3-yl]phenyl}-sulphonyl)amino]phenyl}cyclopropanecarboxamide] |  | 59 | 2167 |  | 39000 nM | 4000 nM
3 | 178.9 °C | 19 nM | 55 nM | CC(C)(CF)C(=O)Nc1cccc(NS(=O)(=O)c2ccc(-c3noc(-c4ccccn4)n3)cc2)c1 [Example 1, 3-Fluoro-2,2-dimethyl-N-{3-[({4-[5-(2-pyridinyl)-1,2,4-oxadiazol-3-yl]phenyl}-sulphonyl)amino]phenyl}propanamide] | 110000 nM | 1737 | 2000 | 33000 nM |  | 
4 |  | 7 nM | 8 nM | CC1(C(=O)Nc2cccc(NS(=O)(=O)c3ccc(-c4noc(-c5nccc6ccccc56)n4)cc3)c2)CC1 [Example 10, N-{3-[({4-[5-(1-Isoquinolinyl)-1,2,4-oxadiazol-3-yl]phenyl}sulphonyl)-amino]phenyl}-1-methylcyclopropanecarboxamide] | > 3900 nM | >975 | >488 | > 7800 nM |  | 
